Reference: US6355608B1, “Detergent composition” (Shiseido Co., Ltd., priority 1998, dated 2002)

Assays:
[1] = Lathering/foaming test: foam volume in a mixer with artificial dirt; assay type: physicochemical; details: mixtures of N-methyl taurate laurate and sodium laurate, total 100 mmol/L; 400 ml with 2g artificial dirt, stirred 60 seconds
[2] = Foaming test with the shaking method; assay type: physicochemical
Description: (§1) 0.5 wt % of each sample in Table 1 was dissolved in ion exchanged water with 70 ppm calcium chloride already dissolved in it. […] This solution was kept at 30° C. put into a Nessler's tube with an inner diameter of 3 cm and a height of 20 cm equipped with a sliding plug, and then tilted 90 degrees every second using a pendulum type shaker. After one minute, the sample was taken out of the shaker and the foam height, the foam film thickness and the foam density were measured. The time required for the foam height to be reduced to a half of the original height was also measured. The foam film thickness was measured by taking a photograph of the foam using a microscope at 100 times magnification and calculating the average value on the photograph. The foam density was obtained by sampling 10 ml of the foam and measuring its weight.
as §1, with “Table 6” for “Table 1”, “30° C.,” for “30° C.”
as §1, with “Table 11” for “Table 1”, “30° C.,” for “30° C.”
as §1, with “sample” for “sample in Table 1”, “C.,” for “C.”, “weight. […]” for “weight.”

In the case of CNCCS(=O)(=O)O [N-methyl taurine], the “Lathering/foaming ability (foam volume, FIG. 6)” value [1] is reported as “good lathering/foaming ability”.
With Magnesium laurate [Control sample 3] the “Foaming (in words)” value ([2]; pH 7) was “harder to foam”.
For “Potassium hydroxylaurate [Control sample 2]”, the “Foaming (in words)” value ([2]; pH 7) was “harder to foam”.
With “Potassium hydroxylauryl ether carboxylate [Control sample 2]” the “Foaming (in words)” value ([2]; pH 4) was “harder to foam”.
For “Sodium hydroxylaurate [Control sample 1]”, the “Foaming (in words)” value ([2]; pH 7) was “harder to foam”.
With “Sodium hydroxylauryl ether carboxylate [Control sample 1]” the “Foaming (in words)” value ([2]; pH 4) was “harder to foam”.
